Three compounds from publication PMC6156363, “The Modulatory Role of CYP3A4 in Dictamnine-Induced Hepatotoxicity” (Frontiers in Pharmacology, 2018) can be followed below.

Several values for one entry are separate records, joined by “and”; a condition that tells them apart may be missing. Equal values may be shown once.

One data set deals with CYP3A4 OE L02 cells. Kind of data set: MTT cytotoxicity in stable CYP3A4 over-expressed L02 cells. It counts as cell-based, human. Particulars: DCF 400–2000 μM. Here is the method:
(§1) Cells were allowed to grow in the selection medium for 4 weeks, at which time individual clonal expansions (clones) were visible. Each clone was transferred and tested for enzymatic activity by a quantitative polymerase chain reaction (Q-PCR), western blot analysis and determining hydroxylation of testosterone.
(§2) The neutral red assay was performed to assess cell viability of NIH3T3 cells. […] After incubation, the neutral red reagent was added following the manufacturer’s instruction. The OD value was detected at 570 nm. The WT and CYP3A4 OE HepG2 and L02 were treated in the same manner as NIH3T3 cells, and cell viability was measured by MTT assay. Cell viability was calculated with the following equation (Eq. 1). OD value is presented as the mean ± SD from three independent replicate experiments.
(§3) Cell viability (%) =[…]

Data set [1] has as its system primary human hepatocytes (PHH). In words: MTT cytotoxicity in primary human hepatocytes, with or without KTZ or RIF pre-incubation. It counts as cell-based. Particulars: 1 mM DCF. Here is the method: All of the compounds were dissolved in DMSO with the final concentration of DMSO was less than 0.2% in the incubation system. The MTT assay was employed and the optical density (OD) value was measured at 490 nm with a microplate reader (BioTek Instruments, Winooski, VT, United States).

A further data set deals with CYP3A4 OE HepG2 cells. Kind of data set: MTT cytotoxicity in stable CYP3A4 over-expressed HepG2 cells. The data set is classed as cell-based, human. Particulars: DCF 400–2000 μM. Here is the method:
as §1, §2, §3

The subject of data set [2] is ICR mice. Kind of data set: Liver injury in mice, group A (DEX induction): liver/body weight, ALT, AST, H&E. It counts as in vivo. The note with it: individual mouse, liver H&E. Here is the method:
(§4) Male adult ICR mice (20 ± 2 g) were supplied by the Model Animal Research Center of Nanjing University (Nanjing, China). All experiments and animal care were conducted in accordance with the Provision and General Recommendation of Chinese Experimental Animals Administration Legislation and were approved by the Science and Technology Department of Jiangsu Province [license number: SYXK (SU) 2016-0011]. The mice were housed in a controlled temperature and humidity of 22 ± 2°C and 55 ± 5%, respectively, and maintained on a 12 h light/dark cycle with free access to food and water. Mice were fastened for 12 h and free to water before treatment.
(§5) Mice were randomly assigned into two groups for different treatment. The protocol was conducted as previously described with minor modification ([Iida et al., 2015]; [Li W. et al., 2016]). […] Blood and liver tissues were collected in 24 h following treatment. All the livers were quickly removed and the left lateral liver lobes were used for histopathological examinations.
The collected blood samples were allowed to clot at room temperature, followed by centrifugation at 4°C, 1,000 × g for 10 min. […] The sections were stained with hematoxylin and eosin (H&E), and finally evaluated by a pathologist using an optical microscope.

Data set [3] has as its system ICR mice. In words: Liver injury in mice, group B (KTZ inhibition): liver/body weight, ALT, AST, H&E. The note with it: individual mouse, liver H&E. The data set is classed as in vivo. Here is the method: as §4, §5
The collected blood samples were allowed to clot at room temperature, followed by centrifugation at 4°C, 1,000 × g for 10 min. The resulting sera were immediately sent for alanine transaminase (ALT) and aspartate aminotransferase (AST) assays to the laboratory in Jiangsu Province Hospital of Traditional Chinese and Western Medicine (Nanjing, China) on ice. The testing laboratory was authenticated with ISO15189 and the assay was performed in a Roche Cobas 8000 (ISE/701/701/502) automatic biochemical analyzer. Liver tissues were immediately fixed in 4% paraformaldehyde for at least 24 h, then paraffin-processed, and sectioned into 3-μm thick slices. The sections were stained with hematoxylin and eosin (H&E), and finally evaluated by a pathologist using an optical microscope.

For another data set, the system named is CYP3A11. In words: Hepatic CYP3A11 expression in mice by Q-PCR and Western blot. Particulars: mice liver, KTZ 75 mg/kg i.p., vs control. The data set is classed as in vivo, mouse.

For `O=C(O)Cc1ccccc1Nc1c(Cl)cccc1Cl` [DCF, diclofenac sodium], the “cell viability in CYP3A4 OE L02 cells compared with WT cells” value with CYP3A4 OE L02 cells was “greatly decreased”. Besides, the “cell viability of PHH in the presence of KTZ” value in data set [1] (24 h, KTZ 10 μM) was “remarkably increased”. Moreover, the “cell viability of PHH pre-incubated with RIF” value in data set [1] (RIF 20 μM) is given as “significantly decreased”. In addition, the “cell viability in CYP3A4 OE HepG2 cells compared with WT cells” value in the data set on CYP3A4 OE HepG2 cells was “greatly decreased”.
Turning to `C[C@@H]1C[C@H]2[C@@H]3CCC4=CC(=O)C=C[C@]4(C)[C@@]3(F)[C@@H](O)C[C@]2(C)[C@@]1(O)C(=O)CO` [DEX, Dexamethasone], in the data set on ICR mice [2], the “Congestion (histopathologic score)” value turned out to be 1; the “Scores (histopathologic, total)” value was 0 and 1.
For `CC(=O)N1CCN(c2ccc(OCC3COC(Cn4ccnc4)(c4ccc(Cl)cc4Cl)O3)cc2)CC1` (stereo not shown) [KTZ, ketoconazole], in the data set with ICR mice [3], the “Inflammatory cells (histopathologic score)” value is 0.5; the “Scores (histopathologic, total)” value was 0 and 0.5; the “hepatocytes Degeneration (histopathologic score)” value came to 0.5. The “decrease in CYP3A11 expression” value with CYP3A11 is recorded as “about 20%”.
